Assay results taken from patent US7964635B2, “Amidoacetonitrile derivatives” (Novartis AG, priority 2003, dated 2011).

Columns and labels:
[1] = tested on: Trichostrongylus colubriformis; assay: In-vivo test on Trichostrongylus colubriformis on Mongolian gerbils using peroral application; conditions: po, 72 h, worm count 3 days after treatment, read-out: Tc: efficacy, % reduction of the number of worms; for inhibition in vivo at 1 mg/kg: 1 mg/kg peroral; for inhibition in vivo at 10 mg/kg: 10 mg/kg peroral; for inhibition in vivo at 3.2 mg/kg: 3.2 mg/kg peroral
Description: (§1) 1. In-Vivo Test on Trichostrongylus colubriformis and Haemonchus contortus on Mongolian Gerbils (Meriones uncuiculatus) Using Peroral Application Six to eight week old Mongolian gerbils are infected through a stomach tube with ca. 2000 third instar larvae each of T. colubriformis and H. contortus. 6 days after infection, the gerbils are treated by peroral application with the test compounds, dissolved in a mixture of 2 parts DMSO and 1 part polyethylene glycol (PEG 400), in quantities of 100, 32 and 10-0.1 mg/kg. On day 9 (3 days after treatment), when most of the H. contortus that are still present are late 4th instar larvae and most of the T. colubriformis are immature adults, the gerbils are killed in order to count the worms. The efficacy is calculated as the % reduction of the number of worms in each gerbil, compared with the geometric average of number of worms from 6 infected and untreated gerbils. The following tables B1, B2 and B3 show a comparison of a series of the compounds of tables 1, 2 and 3 with structurally most closely related ones known from literature, proving the astounding efficacy increase in this test over the state of the art (Hc: Haemonchus contortus; Tc: Trichostrongylus colubriformis): […]

Haemonchus contortus = assay: In-vivo test on Haemonchus contortus on Mongolian gerbils using peroral application; conditions: po, 72 h, worm count 3 days after treatment, read-out: Hc: efficacy, % reduction of the number of worms; for inhibition in vivo at 1 mg/kg: 1 mg/kg peroral; for inhibition in vivo at 10 mg/kg: 10 mg/kg peroral; for inhibition in vivo at 3.2 mg/kg: 3.2 mg/kg peroral
Description: as §1

| melting point [°C] | Compound | inhibition in vivo at 1 mg/kg [1] [%] | inhibition in vivo at 1 mg/kg (Haemonchus contortus) [%] | further results |
| --- | --- | --- | --- | --- |
| 147 to 149 | CC(C#N)(COc1ccc(C#N)cc1Cl)NC(=O)c1ccc(C(F)(F)F)cc1 (stereo not drawn) [No. 1.1, N-[1-cyano-1-methyl-2-(4-cyano-2-chlorophenoxy)-ethyl]-4-trifluoromethylbenzamide] | 87 | 97 |  |
| 184 to 186 | CC(C#N)(COc1ccc(C#N)cc1C(F)(F)F)NC(=O)c1ccc(C(F)(F)F)cc1 (stereo not drawn) [No. 1.3, N-[1-cyano-1-methyl-2-(4-cyano-2-trifluoromethylphenoxy)-ethyl]-4-trifluoromethyl-benzamide] | 91 | 97 |  |
| 147 to 149 | CC(C#N)(COc1cc(C#N)ccc1Cl)NC(=O)c1ccc(C(F)(F)F)cc1 (stereo not drawn) [No. 1.4, N-[1-cyano-1-methyl-2-(5-cyano-2-chlorophenoxy)-ethyl]-4-trifluoromethylbenzamide] |  | 82 |  |
| 154 | CC(C#N)(COc1cc(C#N)ccc1C(F)(F)F)NC(=O)c1ccc(C(F)(F)F)cc1 (stereo not drawn) [No. 1.6, N-[1-cyano-1-methyl-2-(5-cyano-2-trifluoromethylphenoxy)-ethyl]-4-trifluoromethyl-benzamide] | 87 | 97 |  |
|  | CC(C#N)(COc1ccccc1Cl)NC(=O)c1ccc(C(F)(F)F)cc1 (stereo not drawn) [No. 1.12, reference compound] |  |  | inhibition in vivo at 10 mg/kg [1]: 98%; inhibition in vivo at 10 mg/kg (Haemonchus contortus): 82% |
|  | CC(C#N)(COc1ccc(Cl)cc1Cl)NC(=O)c1ccc(C(F)(F)F)cc1 (stereo not drawn) [No. 1.60, reference compound] |  |  | inhibition in vivo at 3.2 mg/kg [1]: 31%; inhibition in vivo at 3.2 mg/kg (Haemonchus contortus): 29% |
|  | CC(C#N)(COc1ccccc1C(F)(F)F)NC(=O)c1ccc(OC(F)(F)F)cc1 (stereo not drawn) [No. 1.64, reference compound] | 55 | 28 |  |
|  | CC(C#N)(COc1cc(Cl)ccc1Cl)NC(=O)c1ccc(C(F)(F)F)cc1 (stereo not drawn) [No. 1.72, reference compound] |  |  | inhibition in vivo at 10 mg/kg (Haemonchus contortus): 66% |
|  | CC(C#N)(COc1cc(Cl)ccc1Cl)NC(=O)c1ccc(OC(F)(F)F)cc1 (stereo not drawn) [No. 1.124, reference compound] |  |  | inhibition in vivo at 10 mg/kg [1]: 99%; inhibition in vivo at 10 mg/kg (Haemonchus contortus): 84% |
|  | CC(C#N)(COc1ccccc1C(F)(F)F)NC(=O)c1ccc(C(F)(F)F)cc1 (stereo not drawn) [No. 1.264, reference compound] |  |  | inhibition in vivo at 3.2 mg/kg [1]: 76%; inhibition in vivo at 3.2 mg/kg (Haemonchus contortus): 57% |
| 60 to 62 | CC(C#N)(COc1ccc(C#N)cc1Cl)NC(=O)c1ccc(OC(F)(F)F)cc1 (stereo not drawn) [No. 2.1, N-[1-cyano-1-methyl-2-(4-cyano-2-chlorophenoxy)-ethyl]-4-trifluoromethoxybenzamide] |  |  | inhibition in vivo at 3.2 mg/kg [1]: 100%; inhibition in vivo at 3.2 mg/kg (Haemonchus contortus): 100% |
| 80 to 82 | CC(C#N)(COc1ccc(C#N)cc1C(F)(F)F)NC(=O)c1ccc(OC(F)(F)F)cc1 (stereo not drawn) [No. 2.3, N-[1-cyano-1-methyl-2-(4-cyano-2-trifluoromethylphenoxy)-ethyl]-4-trifluoromethoxy-benzamide] |  |  |  |
| 132 to 134 | CC(C#N)(COc1cc(C#N)ccc1Cl)NC(=O)c1ccc(OC(F)(F)F)cc1 (stereo not drawn) [No. 2.4, N-[1-cyano-1-methyl-2-(5-cyano-2-chlorophenoxy)-ethyl]-4-trifluoromethoxybenzamide] | 79 | 89 |  |
|  | CC(C#N)(COc1cc(C#N)ccc1C(F)(F)F)NC(=O)c1ccc(OC(F)(F)F)cc1 (stereo not drawn) [No. 2.6, N-[1-cyano-1-methyl-2-(5-cyano-2-trifluoromethylphenoxy)-ethyl]-4-trifluoromethoxybenzamide] | 85 | 95 |  |
|  | CC(C#N)(COc1ccccc1C(F)(F)F)NC(=O)c1ccc(SC(F)(F)F)cc1 (stereo not drawn) [No. 2.14, reference compound] |  |  | inhibition in vivo at 3.2 mg/kg [1]: 73%; inhibition in vivo at 3.2 mg/kg (Haemonchus contortus): 61% |
|  | CC(C#N)(COc1ccccc1C(F)(F)F)NC(=O)c1ccc(C(F)(F)F)cc1F (stereo not drawn) [No. 2.19, reference compound] |  |  | inhibition in vivo at 10 mg/kg [1]: 0%; inhibition in vivo at 10 mg/kg (Haemonchus contortus): 25% |
| 167 to 169 | CC(C#N)(COc1ccc(C#N)cc1Cl)NC(=O)c1ccc(SC(F)(F)F)cc1 (stereo not drawn) [No. 3.1, N-[1-cyano-1-methyl-2-(4-cyano-2-chlorophenoxy)-ethyl]-4-trifluoromethylsulfanylbenzamide] | 93 | 69 |  |
| 79 to 82 | CC(C#N)(COc1ccc(C#N)cc1C(F)(F)F)NC(=O)c1ccc(SC(F)(F)F)cc1 (stereo not drawn) [No. 3.7, N-[1-cyano-1-methyl-2-(4-cyano-2-trifluoromethylphenoxy)-ethyl]-4-trifluoromethylsulfanyl-benzamide] | 98 | 90 |  |
|  | CC(C#N)(COc1ccc(C#N)cc1C(F)(F)F)NC(=O)c1ccc([S+]([O-])C(F)(F)F)cc1 (stereo not drawn) [No. 3.8, N-[1-cyano-1-methyl-2-(4-cyano-2-trifluoromethylphenoxy)-ethyl]-4-trifluoromethylsulfinyl-benzamide] | 85 | 74 |  |
|  | CC(C#N)(COc1ccc(C#N)cc1C(F)(F)F)NC(=O)c1ccc(S(=O)(=O)C(F)(F)F)cc1 (stereo not drawn) [No. 3.9, N-[1-cyano-1-methyl-2-(4-cyano-2-trifluoromethylphenoxy)-ethyl]-4-trifluoromethylsulfonyl-benzamide] | 87 | 77 |  |
| 125 to 127 | CC(C#N)(COc1cc(C#N)ccc1Cl)NC(=O)c1ccc(SC(F)(F)F)cc1 (stereo not drawn) [No. 3.10, N-[1-cyano-1-methyl-2-(5-cyano-2-chlorophenoxy)-ethyl]-4-trifluoromethylsulfanylbenzamide] | 100 | 100 |  |
|  | CC(C#N)(COc1cc(C#N)ccc1C(F)(F)F)NC(=O)c1ccc(SC(F)(F)F)cc1 (stereo not drawn) [No. 3.16, N-[1-cyano-1-methyl-2-(5-cyano-2-trifluoromethylphenoxy)-ethyl]-4-trifluoromethylsulfanyl-benzamide] | 100 | 100 |  |
|  | CC(C#N)(COc1cc(C#N)ccc1C(F)(F)F)NC(=O)c1ccc([S+]([O-])C(F)(F)F)cc1 (stereo not drawn) [No. 3.17, N-[1-cyano-1-methyl-2-(5-cyano-2-trifluoromethylphenoxy)-ethyl]-4-trifluoromethylsulfinyl-benzamide] | 100 | 100 |  |
|  | CC(C#N)(COc1cc(C#N)ccc1C(F)(F)F)NC(=O)c1ccc(S(=O)(=O)C(F)(F)F)cc1 (stereo not drawn) [No. 3.18, N-[1-cyano-1-methyl-2-(5-cyano-2-trifluoromethylphenoxy)-ethyl]-4-trifluoromethylsulfonyl-benzamide] | 100 | 100 |  |
